US20120309717A1, “COMPOUNDS, METHODS AND PHARMACEUTICAL COMPOSITIONS FOR INHIBITING PARP” (EISAI INC., priority 2003, published 2012)

What was measured:
[1] = tested on: human fibroblast cells lines (W138 or BJ cells); experiment: proliferative capacity and lifespan of human fibroblast cells; format: cell-based
Procedure: At the time of subdivision, the media is aspirated, and the cells rinsed with phosphate buffer saline (PBS) and then trypsinized. The cells are counted with a Coulter counter and plated at a density of 10^5 cells per cm^2 in 6-well tissue culture plates in DMEM/199 medium supplemented with 10% bovine calf serum and varying amounts (0.10 μM, and 1 mM: from a 100× stock solution in DMEM/M199 medium) of a PARP inhibitor. This process is repeated every 7 days until the cells appear to stop dividing. The untreated (control) cells reach senescence and stop dividing after about 40 days in culture. […] The cells treated with 1 mM 3-AB will still divide after 60 days in culture.

[2] = tested on: ischemia and reperfusion of the heart; settings: single injection 10 mg/kg, one minute before occlusion or before reperfusion; cited from earlier work
colitis = settings: rats; cited from earlier work
[3] = tested on: regional heart ischemia reperfusion; experiment: regional heart ischemia reperfusion model (LAD occlusion); format: in vivo, rat; settings: iv bolus pre-ischemia plus iv bolus post-ischemia, 10 to 40 mg/kg; 30 min LAD occlusion, 2 hr reperfusion; male SD rats
Procedure: In the present study, we investigated the effects of 43 in the regional heart ischemia reperfusion model. In regional heart ischemia model, sodium thiopental-anaesthetized male SD rats were subjected to occlusion of LAD coronary artery for 30 min followed by 2 hr of reperfusion. The infarct size was quantified by TTC staining method and expressed as percent of area at risk.
The left anterior descending coronary artery of Sprague-Dawley rats was occluded for 30 minutes. This was followed by 90-120 minutes of blood reflow. PARP inhibitor compounds were given intraperitoneally (ip), 60 minutes pre-, or intravenously (iv), 15 or 5 minutes pre- and 25 minutes post-onset of ischemia. Infarct size was determined by TTC staining and the risk area was determined via blue dye injection.

[4] = tested on: murine melanoma cell line B16; experiment: colony-formation assay, B16; format: cell-based
Procedure: (§1) The murine melanoma cell line B16 of C57BL/6J (H-2^b/H-2^b) origin and the lymphoma cell line L5178Y of DBA/2 (H-2^d/H-2^d) origin (ATCC, Manassas, Va.) were cultured in RPMI-1640 containing 10% fetal calf serum (Invitrogen, Milan, Italy), 2 mM L-glutamine, 100 units/ml penicillin and 100 μg/ml streptomycin (Flow Laboratories, Mc Lean, Va.), at 37° C. in a 5% CO2 humidified atmosphere. The human glioblastoma multiforme cell line SJGBM2 was cultured in DMEM (Invitrogen) supplemented with 10% fetal calf serum, 2 mM L-glutamine and antibiotics. SJGBM2 cell line was a kind gift from Dr. Peter J. Houghton (St. Jude Children's Research Hospital, Memphis, Tenn., USA).
(§2) […] For the experiments aimed at assessing the enhancing effect of 43 on TMZ-induced tumor growth inhibition, the methylating agent was added to cell cultures 15 min after 43 was used at concentrations non-toxic, and capable of abrogating PARP activity.
(§3) Long-term survival was analyzed by colony-formation assay. Exponentially growing melanoma and glioblastoma cells were seeded into 6-well plates at a density of 2×10^2/well and left to attach for 18 h; cells were then treated with the compounds under study and cultured to allow colony formation. After 10 days, colonies (defined as a cluster of >50 cells) were fixed and stained with rhodamine B basic violet 10 (ICN Biomedicals Inc., Aurora, Ohio, USA). Untreated or treated lymphoma cells were seeded at 1 cell/well in 96-well plates (flat-bottomed) and cultured. After 10 days, colonies were counted to determine cloning efficiency, using an optical microscope (Tentori 2001b).
(§4) Cell line chemosensitivity to TMZ, 43 or to the drug combination was evaluated in terms of IC50, i.e. the concentration of the drug expressed in μM, capable of inhibiting colony-forming ability by 50%. The IC50 was calculated on the regression line in which the number of colonies was plotted vs the drug concentration.

[5] = tested on: human glioblastoma multiforme cell line SJGBM2; experiment: colony-formation assay, SJGBM2; format: cell-based
Procedure: as §1
Cells were treated with 43 (0.1-20 μM) or with TMZ (1-250 μM). For the experiments aimed at assessing the enhancing effect of 43 on TMZ-induced tumor growth inhibition, the methylating agent was added to cell cultures 15 min after 43 was used at concentrations non-toxic, and capable of abrogating PARP activity.
as §3, §4

[6] = tested on: lymphoma cell line L5178Y; experiment: colony-formation assay, L5178Y; format: cell-based, murine
Procedure: as §1, §2, §3, §4

B16 melanoma [7] = experiment: B16 melanoma growing subcutaneously in B6D2F1 mice; format: in vivo, mouse; settings: 3 days
Procedure: 43 was administered 15 min before TMZ administration. Control mice were always injected with drug vehicles.
The efficacy of TMZ±43 treatment was also evaluated on melanoma growing subcutaneously (sc). For this purpose B16 cells (2.5×10^5) were inoculated sc in the flank of the animal. Tumors were measured with calipers and volume calculated according to the formula: [(width)^2×length]/2. Treatment was started 6 days after challenge, when the volume of tumor nodules reached 100-150 mm^3. Melanoma growth was monitored, by measuring tumor nodules every 3 days for 3 weeks.

B16 melanoma [8] = experiment: B16 melanoma growing at the CNS site (intracranial); format: in vivo, mouse
Procedure: (§5) The intracranial transplantation procedure was performed as previously described (Tentori 2002b). Cells (10^4 in 0.03 ml of RPMI-1640) were injected intra-cranially (ic) through the center-middle area of the frontal bone to a 2 mm depth, using a 0.1 ml glass microsyringe and a 27-gauge disposable needle.
(§6) Murine melanoma B16 or lymphoma L5178Y cells (10^4) were injected ic into male B6D2F1 (C57BL/6×DBA/2) mice. Human glioblastoma multiforme SJGBM2 cells (10^6) were injected ic into male athymic BALB/c mice (nu/nu genotype). Before tumor challenge, animals were anesthetized with ketamine (100 mg/kg) and xylazine (5 mg/kg) in 0.9% NaCl solution (10 ml/kg/ip).
(§7) Mice were monitored for mortality for 90 days. Median survival times (MST) were determined and the percentage of increase in lifespan (ILS) was calculated as: {[MST (days) of treated mice/MST (days) of control mice]−1}×100. Efficacy of treatments was evaluated by comparing survival curves between treated and control groups.
(§8) To assess the ability of different treatments to reduce tumor growth, histological examination of the brains was performed using additional animals that were not considered for the analysis of survival. Mice were sacrificed at different time points after tumor challenge, selected within the MST range of untreated tumor-bearing animals.

[9] = crossing of the blood-brain barrier; format: in vivo; settings: systemic administration
[10] = tested on: SJGBM2 human glioblastoma multiforme; experiment: orthotopic human glioblastoma multiforme xenograft in nude mice; format: in vivo, mouse; settings: with respect to controls or single agents
Procedure: as §5, §6, §7, §8

[11] = drug toxicity / maximal tolerated dose in intact mice; settings: TMZ ip + 43 iv, for 3 days
Procedure: Drug toxicity was evaluated by treating intact mice (5/group) with the compounds under study, used as single agents or in combination. Control groups were treated with vehicles only. Body weight was measured three times weekly and survivals were recorded for 3 weeks after the last treatment. Toxicity was assessed on the basis of apparent drug-related deaths and net body weight loss [i.e., (initial weight−lowest weight/initial weight)×100%]. Death was considered drug-related when occurring within 7 days after the last treatment.
43 was dissolved in 70 mM PBS without potassium, and injected intravenously (iv) at different doses (40-200 mg/kg) to establish the maximal tolerated dose.
TMZ was dissolved in dimethyl-sulfoxide (40 mg/ml), diluted in saline (5 mg/ml) and administered ip at doses commonly used for in vivo preclinical studies (Friedman 1995; Middleton 2000; Kokkinakis 2001). Experiments were performed using different doses and schedules of TMZ+43 to determine the maximal tolerated dose of the drug combination. 43 was administered 15 min before TMZ administration. Control mice were always injected with drug vehicles.

endotoxic shock = settings: cited from earlier work

NC(=O)c1cccc(N)c1 [3-amino-benzamide]
effect on lifespan of the cells ([1]; 10 μM): little or no effect
effect on lifespan of the cells ([1]; 100 μM): lengthen the lifespan of the cells
effect on lifespan and proliferative capacity of the cells ([1]; 1 mM): dramatically increases the lifespan and proliferative capacity
time in culture at which cells still divide ([1]; 1 mM, untreated cells stop after about 40 days): > 60 days
reduction in infarct size in the heart [2]: 32-42%
inflammatory response, distal colon (colitis): reduced the inflammatory response

CN1CCN(Cc2ccc3c(c2)-c2n[nH]c(=O)c4cccc(c24)O3)CC1 [Compound 43, 10-(4-Methyl-piperazin-1-ylmethyl)-2H-7-oxa-1,2-diaza-benzo[de]anthracen-3-one]
cardiac protection (infarct size) [3]: significant cardiac protection
intrinsic growth inhibition as single agent ([4]; 1-25 μM 43, B16): some intrinsic growth inhibition
maximal enhancement of TMZ-induced growth inhibition ([4]; B16, 0.6 μM 43): 10 fold
susceptibility to antiproliferative effect with respect to SJGBM2 and L5178Y ([4]; B16, 43 as single agent): more susceptible
inhibition at 1.2 µM ([4]; Mus musculus, B16, 43 at 1.2 μM, read-out: growth inhibition with respect to control): 18 ± 3%
intrinsic growth inhibition as single agent ([5]; 1-25 μM 43, SJGBM2): some intrinsic growth inhibition
maximal increase of TMZ growth inhibitory effect ([5]; SJGBM2, 1.2 μM 43): ~4 fold
intrinsic growth inhibitory effect ([5]; SJGBM2, 2.5 μM 43): intrinsic growth inhibitory effect
intrinsic growth inhibition as single agent ([6]; 1-25 μM 43, L5178Y): some intrinsic growth inhibition
maximal increase of TMZ growth inhibitory effect ([6]; L5178Y, 1.2 μM 43): ~10 fold
intrinsic growth inhibitory effect ([6]; L5178Y, 2.5 μM 43): intrinsic growth inhibitory effect
tumor growth, 43 only (B16 melanoma [7]; 43 40 mg/kg/day iv, single agent): did not affect tumor growth
enhancement of the antitumor effects of TMZ (B16 melanoma [7]; TMZ 100 mg/kg/day ip + 43 40 mg/kg/day iv, P <0.0001): significantly enhanced
tumor infiltration in the brain (histology) (B16 melanoma [8]): pronounced and diffuse tumor infiltration
blood-brain barrier crossing [9]: capable of crossing the blood-brain barrier

Cn1nnc2c(C(N)=O)ncn2c1=O [TMZ, temozolimide]
tumor infiltration in the brain (histology) (B16 melanoma [8]): limited but multifocal infiltration
survival of tumor bearing mice [10]: completely ineffective
highest tolerable dose of the drug combination [11]: 100 mg/kg/day

NC(=O)c1cccnc1 [nicotinamide]
protection against vascular failure (endotoxic shock): protects against delayed, NO-mediated vascular failure
